Reference: patent publication US7407940B2, “Antimicrobial hexapeptides” (Helix BioMedix Inc., priority 2005, dated 2008)
Converted amounts (≈) assume the structure as drawn. Like-named read-outs stand apart in the source and are kept apart here. Where a SMILES comes first, the peptide text is derived from it. Where no end group is shown, it is not given here. The star is where a group is joined. Pentadecanoyl = CCCCCCCCCCCCCCC(=O)*; Palmitoyl = CCCCCCCCCCCCCCCC(=O)*; Tridecanoyl = CCCCCCCCCCCCC(=O)*; Myristoyl = CCCCCCCCCCCCCC(=O)*; Lauroyl = CCCCCCCCCCCC(=O)*; Octanoyl = CCCCCCCC(=O)*

What was measured:
Candida albicans = assay type: cell-based
Procedure: (§1) MICs (minimal inhibitory concentrations) were determined for the hexapeptides of interest using a slightly modified version of the NCCLS (National Committee for Clinical Laboratory Standards) broth microdilution method as described previously (Steinberg et al., AAC 41: 1738, 1997). Briefly, antimicrobial agents were prepared as 10× concentrates in the most appropriate solvent. For the hexapeptide, 0.01% acetic acid containing 0.2% bovine serum albumin as a carrier protein was used. Inocula were prepared by resuspending colonies from a BAP (please spell out this term) in medium and adjusting the suspension to match that of a 0.5 McFarland standard. The suspension was diluted into fresh medium (as recommended by NCCLS for the organism) to give 2×10^5 to 7×10^5 CFU/ml for bacteria or 2×10^3 to 7×10^3 CFU/ml for Candida. After dispensing 100 μl aliquots of the microbial suspension into each well of a 96-well polypropylene microtiter plate, 11 μl of test compound was added. The MIC was defined as the lowest concentration of drug which prevented visible turbidity after 16 to 20 hours (bacteria) or 46 to 50 hours (Candida) at 35° C.

[1] = system: azole resistant strains of C. albicans; assay type: cell-based; parameters: MIC-SEQ ID NO: 55 + azole, peptide part / MIC-SEQ ID NO: 55 + azole, azole part: unit not given beside the values; conditions: in combination with SEQ ID NO: 55
Procedure: (§2) The fractional inhibitory concentration (FIC) index was used to determine the synergy between antimicrobial agents. Peptide MICs against test microorganisms were determined three times on separate occasions. […]
All strains are azole resistant clinical isolates from Prof. Ted White (Seattle Biotechnology Research Institute, Seattle)

[2] = system: Trychophyton mentagrophytes; assay: MIC100 against dermatophyte Trychophyton mentagrophytes; assay type: cell-based; conditions: T. mentagrophytes; at 10 days
Procedure: (§3) In order to compare the activity of various antimicrobial peptides, including hexapeptide SEQ ID NO:1 (P0666), MIC were determined against the dermatophytes Trychophyton rubrum and Trychophyton mentagrophytes. The concentration of samples investigated were: 2000, 1000, 500, 250 and 125 μg/ml, respectively. The medium used was modified Sabouraud's media without agar. For a 100 mL of modified Sabouraud medium: 3 g of Sabouraud's dextrose broth (Difco) was mixed into 100 mL of deionized water. The pH was adjusted to 7.0 with 0.1 N NaOH. The solution was autoclaved for thirty minutes. 940 μL of medium was poured into sterile 20 mL test tubes with plastic caps and was allowed to cool.
(§4) 50 μL of […] was added to each 20 mL test tube to make the required concentration. A control tube was composed of 50 μL of saline without sample. For the MIC experiments,
(§5) 10 μL of organism suspended in saline was added to the each 20 mL test tube and vortexed slightly. Each of the test tubes was covered in parafilm and maintained on a shaker at 27° C. at a speed of approximately 100 rpm.
(§6) The growth/inhibition of the organism was observed on a daily basis. […] The Minimum Inhibition Concentration (MIC100) for compounds F1 to F10 against fungus Trychophyton rubrum and Trychophyton mentagrophytes at 10 days.

Trychophyton rubrum = assay: MIC100 against dermatophyte Trychophyton rubrum; assay type: cell-based; conditions: T. rubrum; at 10 days
Procedure: as §3, §4, §5, §6

MRSA = assay: Kill curve in 10% sheep serum-phosphate buffer against MRSA; assay type: cell-based, S. aureus; parameters: MRSA count in kill curve: unit not given here
Pseudomonas aeruginosa = assay type: cell-based; parameters: MIC, lipid length SAR: unit not given here; conditions: for MIC, lipid length SAR: P.aeruginosa; for MIC: agent alone
Procedure: as §1

Staphylococcus aureus = assay type: cell-based
Procedure: as §1

P. aeruginosa = assay type: cell-based; conditions: combined with SEQ ID NO: 55
Procedure: as §2

[3] = parameters: species or system Sprague-Dawley rats; conditions: rat, in vivo
Text: Each wound observed at each dressing change and the wound surface and tissue reaction assessed. There were 5 parameters of wound status that were checked: • i. Wound Film Security—Was the adhesive film used to cover the wound still completely adherent to the skin around the wound? • ii. Wound Surface—What was the exact visual appearance of the wound surface? • iii. Amount of Exudate—How much exudate was trapped under the film? In many cases, accumulated exudate causes the film to lose adherence and the exudates will escape. • iv. Severity of Tissue Reaction—A subjective rating of extent of tissue reaction on a scale of 1 (minimal), 2 (moderate), 3 (extensive). • v. % of Tissue Involved—In some situations, the wound surface contained denatures, friable tissue that could be wiped off with pressure applied to gauze. This test was used to better differentiate denatured tissue from viscous exudates.

[4] = system: Salmonella typhimurium 14028S; assay: MIC, broth microdilution, S. typhimurium; assay type: cell-based; parameters: unit not given here; conditions: S.typhimurium
Procedure: as §1

P. acnes = assay: Activity against extended panel of P. acnes; assay type: cell-based; parameters: unit not given here
Text: A very promising application for short bioactive peptides is for dermatological indications such as acne.

Compound: Clc1ccccc1C(c1ccccc1)(c1ccccc1)n1ccnc1 [Clotrimazole, clotrimazole, reference compound]
- MIC (Candida albicans; T.W. Candida #184, azole resistant clinical isolate): > 256 µg/mL
- MIC (Candida albicans; T.W. Candida #185 (CDR1,2), azole resistant clinical isolate): 128 µg/mL (≈ 371 µM)
- MIC (Candida albicans; T.W. Candida #186 (CDR1,2), azole resistant clinical isolate): 32 µg/mL (≈ 92.8 µM)
- MIC (Candida albicans; T.W. Candida #187 (CDR1,2), azole resistant clinical isolate): > 256 µg/mL
- MIC (Candida albicans; T.W. Candida #192 (CDR1,2), azole resistant clinical isolate): 128 µg/mL (≈ 371 µM)
- MIC (Candida albicans; T.W. Candida #193, azole resistant clinical isolate): 0.5 µg/mL (≈ 1.45 µM)
- MIC (Candida albicans; T.W. Candida #194, azole resistant clinical isolate): > 256 µg/mL
- MIC (Candida albicans; T.W. Candida #195, azole resistant clinical isolate): 256 µg/mL (≈ 742 µM)
- MIC (Candida albicans; T.W. Candida #196 (CDR1,2), azole resistant clinical isolate): 64 µg/mL (≈ 186 µM)
- MIC (Candida albicans; T.W. Candida #197, azole resistant clinical isolate): > 256 µg/mL
- MIC (Candida albicans; T.W. Candida #198, azole resistant clinical isolate): > 256 µg/mL
- MIC (Candida albicans; T.W. Candida #199 (CDR1,2), azole resistant clinical isolate): 64 µg/mL (≈ 186 µM)
- MIC-SEQ ID NO: 55 + azole, azole part ([1]; C. albicans #185): 12.5
- MIC-SEQ ID NO: 55 + azole, azole part ([1]; C. albicans #186): 12.5
- MIC-SEQ ID NO: 55 + azole, azole part ([1]; C. albicans #187): 25
- MIC-SEQ ID NO: 55 + azole, azole part ([1]; C. albicans #192): 50
- MIC-SEQ ID NO: 55 + azole, azole part ([1]; C. albicans #196): 50
- MIC-SEQ ID NO: 55 + azole, azole part ([1]; C. albicans #199): 25

Compound: FALKALKKLKKALKKAL-NH2 [SEQ ID NO: 86]
- MIC100 [2]: 250 µg/mL
- MIC100 (Trychophyton rubrum): 1000 µg/mL

Compound: KFKWPW-NH2 [SEQ ID NO: 1, KFKWPW-NH2]
- MRSA count in kill curve (MRSA; buffer, 2 mg/ml, 30 min): 99200
- MRSA count in kill curve (MRSA; buffer, 2 mg/ml, 1 hour): 62800
- MRSA count in kill curve (MRSA; buffer, 2 mg/ml, 2 hours): 99200
- MRSA count in kill curve (MRSA; buffer, 2 mg/ml, 3 hours): 99200
- MRSA count in kill curve (MRSA; buffer, 2 mg/ml, 4 hours): 99200
- MRSA count in kill curve (MRSA; buffer, 2 mg/ml, 5 hours): 99200
- MRSA count in kill curve (MRSA; serum, 1 mg/ml, 30 min): 102300
- MRSA count in kill curve (MRSA; serum, 1 mg/ml, 1 hour): 99600
- MRSA count in kill curve (MRSA; serum, 1 mg/ml, 2 hours): 15110
- MRSA count in kill curve (MRSA; serum, 1 mg/ml, 3 hours): 12080
- MRSA count in kill curve (MRSA; serum, 1 mg/ml, 4 hours): 5020
- MRSA count in kill curve (MRSA; serum, 1 mg/ml, 5 hours): 2570
- MRSA count in kill curve (MRSA; serum, 2 mg/ml, 30 min): 9800
- MRSA count in kill curve (MRSA; serum, 2 mg/ml, 1 hour): 3200
- MRSA count in kill curve (MRSA; serum, 2 mg/ml, 2 hours): 630
- MRSA count in kill curve (MRSA; serum, 2 mg/ml, 3 hours): 250
- MRSA count in kill curve (MRSA; serum, 2 mg/ml, 4 hours): 70
- MRSA count in kill curve (MRSA; serum, 2 mg/ml, 5 hours): 50
- MIC, lipid length SAR (Pseudomonas aeruginosa): 32
- MIC100 [2]: 250 µg/mL
- MIC100 (Trychophyton rubrum): 250 µg/mL

Compound: FAKLLAKLAKKLL-NH2 [SEQ ID NO: 89]
- MIC100 [2]: 500 µg/mL
- MIC100 (Trychophyton rubrum): 500 µg/mL

Compound: CCCCCCCCCCCC(=O)N[C@@H](CCCCN)C(=O)N[C@@H](Cc1ccccc1)C(=O)N[C@@H](CCCCN)C(=O)N[C@@H](Cc1c[nH]c2ccccc12)C(=O)N1CCC[C@H]1C(=O)N[C@@H](Cc1c[nH]c2ccccc12)C(N)=O [compound 72] (Lauroyl-KFKWPW-NH2)
- Minimal Inhibitory Concentrations (Mics) (Staphylococcus aureus): 4-8 Mg/Ml

Compound: polymyxin B [reference compound]
- MIC-PXB-combined (P. aeruginosa; P. aeruginosa 100609): 0.125 µg/mL
- MIC-PXB-combined (P. aeruginosa; P. aeruginosa H187): 0.06 µg/mL
- MIC-PXB-combined (P. aeruginosa; P. aeruginosa H401): 0.0625 µg/mL
- MIC-PXB-combined (P. aeruginosa; P. aeruginosa M917): 0.25 µg/mL
- MIC (Pseudomonas aeruginosa; P. aeruginosa 100609, tobromycin resistant): 0.5 µg/mL
- MIC (Pseudomonas aeruginosa; P. aeruginosa H187, wide type): 0.5 µg/mL
- MIC (Pseudomonas aeruginosa; P. aeruginosa H401, mucoid clinical isolate): 0.25 µg/mL
- MIC (Pseudomonas aeruginosa; P. aeruginosa M917, multi-drug resistant clinical isolate): 1 µg/mL

Compound: CCCCCCCCCCCCCCC(=O)N[C@@H](CCCCN)C(=O)N[C@@H](Cc1ccccc1)C(=O)N[C@@H](CCCCN)C(=O)N[C@@H](Cc1c[nH]c2ccccc12)C(=O)N1CCC[C@H]1C(=O)N[C@@H](Cc1c[nH]c2ccccc12)C(N)=O [compound 78] (Pentadecanoyl-KFKWPW-NH2)
- Minimal Inhibitory Concentrations (Mics) (Staphylococcus aureus): 32-64 Mg/Ml

Compound: CCCCCCCC(=O)N[C@@H](CCCCN)C(=O)N[C@@H](Cc1ccccc1)C(=O)N[C@@H](CCCCN)C(=O)N[C@@H](Cc1c[nH]c2ccccc12)C(=O)N1CCC[C@H]1C(=O)N[C@@H](Cc1c[nH]c2ccccc12)C(N)=O [SEQ ID NO: 55 (P-1032)] (Octanoyl-KFKWPW-NH2)
- Tissue reaction severity [3]: 1

Compound: H-RFKWFW-NH2 [compound 7]
- Minimal Inhibitory Concentrations (Mics) (Staphylococcus aureus): 64-128 Mg/Ml
- Minimal Inhibitory Concentrations (Mics) (Candida albicans; C. albicans strain 105): 64-128^1 Mg/Ml

Compound: FAKLLAKALKKLL-NH2 [SEQ ID NO: 87]
- MIC100 [2]: 500 µg/mL
- MIC100 (Trychophyton rubrum): 500 µg/mL

Compound: H-KWKWFW-NH2 [compound 3]
- Minimal Inhibitory Concentrations (Mics) (Staphylococcus aureus): 32-64 Mg/Ml
- Minimal Inhibitory Concentrations (Mics) (Candida albicans): 64-64 Mg/Ml

Compound: CCCCCCCCCCCCCC(=O)N[C@@H](CCCCN)C(=O)N[C@@H](Cc1ccccc1)C(=O)N[C@@H](CCCCN)C(=O)N[C@@H](Cc1c[nH]c2ccccc12)C(=O)N1CCC[C@H]1C(=O)N[C@@H](Cc1c[nH]c2ccccc12)C(N)=O [compound 77] (Myristoyl-KFKWPW-NH2)
- Minimal Inhibitory Concentrations (Mics) (Staphylococcus aureus): 8-16 Mg/Ml
- Minimal Inhibitory Concentrations (Mics) (Candida albicans): 4-8 Mg/Ml
- Minimal Inhibitory Concentrations (Mics) (Pseudomonas aeruginosa): 64-128 Mg/Ml

Compound: Pal-KFKWPW-NH2 (Palmitoyl-KFKWPW-NH2; SMILES CCCCCCCCCCCCCCCC(=O)N[C@@H](CCCCN)C(=O)N[C@@H](Cc1ccccc1)C(=O)N[C@@H](CCCCN)C(=O)N[C@@H](Cc1c[nH]c2ccccc12)C(=O)N1CCC[C@H]1C(=O)N[C@@H](Cc1c[nH]c2ccccc12)C(N)=O) [SEQ ID NO: 73]
- MIC, lipid length SAR (Pseudomonas aeruginosa): >128
- MIC, lipid length SAR [4]: >128

Compound: Lau-KFKWPW-NH2 (Lauroyl-KFKWPW-NH2; SMILES CCCCCCCCCCCC(=O)N[C@@H](CCCCN)C(=O)N[C@@H](Cc1ccccc1)C(=O)N[C@@H](CCCCN)C(=O)N[C@@H](Cc1c[nH]c2ccccc12)C(=O)N1CCC[C@H]1C(=O)N[C@@H](Cc1c[nH]c2ccccc12)C(N)=O) [SEQ ID NO: 72]
- MIC, lipid length SAR (Pseudomonas aeruginosa): 32
- Activity (MIC) against P. acnes (P. acnes; ATCC 6922): 1
- Activity (MIC) against P. acnes (P. acnes; ATCC 6923): 1
- Activity (MIC) against P. acnes (P. acnes; ATCC 25746): 1
- Activity (MIC) against P. acnes (P. acnes; ATCC 29399): 2
- Activity (MIC) against P. acnes (P. acnes; ATCC 33179): 1
- Activity (MIC) against P. acnes (P. acnes; ATCC 51277): 1
- MIC, lipid length SAR [4]: 32

Compound: CCCCCCCCCCCCC(=O)N[C@@H](CCCCN)C(=O)N[C@@H](Cc1ccccc1)C(=O)N[C@@H](CCCCN)C(=O)N[C@@H](Cc1c[nH]c2ccccc12)C(=O)N1CCC[C@H]1C(=O)N[C@@H](Cc1c[nH]c2ccccc12)C(N)=O [compound 80] (Tridecanoyl-KFKWPW-NH2)
- Minimal Inhibitory Concentrations (Mics) (Staphylococcus aureus): 2-4 Mg/Ml
